Molecular target: T1, Prostaglandin G/H synthase 1 (Ovis aries, UniProt P05979)
T1 sequence (P05979 whole entry): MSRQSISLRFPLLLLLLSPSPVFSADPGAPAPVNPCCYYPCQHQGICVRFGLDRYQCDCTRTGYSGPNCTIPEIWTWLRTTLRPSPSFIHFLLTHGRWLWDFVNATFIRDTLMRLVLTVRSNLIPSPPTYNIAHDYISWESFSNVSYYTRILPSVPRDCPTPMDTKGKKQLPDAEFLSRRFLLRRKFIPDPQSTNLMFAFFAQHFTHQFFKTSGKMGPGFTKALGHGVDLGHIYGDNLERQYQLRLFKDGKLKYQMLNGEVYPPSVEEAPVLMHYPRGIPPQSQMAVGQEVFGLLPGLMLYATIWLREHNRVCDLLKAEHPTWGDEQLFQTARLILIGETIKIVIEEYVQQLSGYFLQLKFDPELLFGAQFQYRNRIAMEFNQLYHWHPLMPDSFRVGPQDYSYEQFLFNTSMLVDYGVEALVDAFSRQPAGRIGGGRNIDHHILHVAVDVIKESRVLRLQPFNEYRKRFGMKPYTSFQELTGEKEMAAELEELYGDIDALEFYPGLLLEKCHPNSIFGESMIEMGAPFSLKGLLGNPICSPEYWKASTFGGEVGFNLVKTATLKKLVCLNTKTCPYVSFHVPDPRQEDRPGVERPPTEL
Test: Inhibition of ovine COX1 after 5 mins by enzyme immunoassay

| Structure (SMILES) | IC50 [µM] |
| --- | --- |
| COc1cc(-n2c(O)c3c(c2O)CC=CC3)cc(OC)c1OC [cis-2-(3,4,5-Trimethoxyphenyl)-3a,4,7,7a-tetrahydro-1H-isoindole-1,3(2H)-dione] | > 100 |
| COc1cc(-n2c(O)ccc2O)cc(OC)c1OC [1-(3,4,5-Trimethoxyphenyl)pyrrolidine-2,5-dione] | > 100 |
| COc1cc(-n2c(O)c3c(c2O)C2(Cl)C(Cl)=C(Cl)C3(Cl)C2(Cl)Cl)cc(OC)c1OC [4,5,6,7,8,8-Hexachloro-2-(3,4,5-trimethoxyphenyl)-3a,4,7,7a-tetrahydro-1H-4,7-methanoisoindole-1,3(2H)-dione] | > 100 |
| Oc1c2c(c(O)n1-c1cc(Cl)c(Cl)c(Cl)c1)CC=CC2 [cis-2-(3,4,5-Trichlorophenyl)-3a,4,7,7a-tetrahydro-1H-isoindole-1,3(2H)-dione] | > 100 |
| Oc1c2c(c(O)n1-c1cc(Cl)c(Cl)c(Cl)c1)C1(Cl)C(Cl)=C(Cl)C2(Cl)C1(Cl)Cl [4,5,6,7,8,8-Hexachloro-2-(3,4,5-trichlorophenyl)-3a,4,7,7a-tetrahydro-1H-4,7-methanoisoindole-1,3(2H)-dione] | > 100 |
| Oc1ccc(O)n1-c1cc(Cl)c(Cl)c(Cl)c1 [1-(3,4,5-trichlorophenyl)pyrrolidine-2,5-dione] | > 100 |
